According to patent publication US8586588B2, “Aryl pyridazinone derivatives and their use as H3 receptor ligands” (Cephalon, Inc., priority 2006, dated 2013):
Where a name gives a salt, the structure may show the parent alone.

How the values were obtained:
human H3 receptor = molecular target: T1, human H3 receptor (Homo sapiens, UniProt Q9Y5N1); assay: Human H3 radioligand binding ([3H]-N-alpha-methylhistamine, CHO cell membranes, SPA); settings: Table B, binding constant as letter class
T1 construct: expressed in transfected cells
T1 sequence (Q9Y5N1 whole entry): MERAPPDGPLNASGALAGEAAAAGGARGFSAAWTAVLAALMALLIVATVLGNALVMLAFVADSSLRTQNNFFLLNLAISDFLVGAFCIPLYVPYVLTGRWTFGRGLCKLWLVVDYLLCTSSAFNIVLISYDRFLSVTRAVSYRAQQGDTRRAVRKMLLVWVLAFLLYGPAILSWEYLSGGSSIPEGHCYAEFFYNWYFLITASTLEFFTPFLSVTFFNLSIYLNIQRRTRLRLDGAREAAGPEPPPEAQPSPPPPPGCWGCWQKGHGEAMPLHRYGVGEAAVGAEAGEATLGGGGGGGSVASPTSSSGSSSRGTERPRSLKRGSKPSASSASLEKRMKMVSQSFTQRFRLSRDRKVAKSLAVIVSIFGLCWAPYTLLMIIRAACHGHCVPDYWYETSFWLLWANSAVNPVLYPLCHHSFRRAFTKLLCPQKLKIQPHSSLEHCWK
Procedure, shortened: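 Scintillation proximity format: bead-proximal [3H]-N-alpha-methylhistamine (approximately 1 nM final) bound to human H3 receptor in CHO membranes was counted after 4 h at room temperature, light-protected. Buffer was pH 7.4 Tris/MgCl2/BSA; test compounds spanned 0.01 nM-30 μM; 10 μM clobenpropit set non-specific binding.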

[1] = molecular target: T2, rat histamine H3 receptor (Rattus norvegicus, UniProt Q9QYN8); assay: Rat H3 radioligand binding ([3H]-N-alpha-methylhistamine, CHO-A3 cell membranes, SPA); settings: Table B, binding constant as letter class; read-out: rat H3 Ki
T2 construct: encoding the entire 445-amino-acid rat histamine H3 receptor; expressed in transfected cells
T2 sequence (Q9QYN8 whole entry): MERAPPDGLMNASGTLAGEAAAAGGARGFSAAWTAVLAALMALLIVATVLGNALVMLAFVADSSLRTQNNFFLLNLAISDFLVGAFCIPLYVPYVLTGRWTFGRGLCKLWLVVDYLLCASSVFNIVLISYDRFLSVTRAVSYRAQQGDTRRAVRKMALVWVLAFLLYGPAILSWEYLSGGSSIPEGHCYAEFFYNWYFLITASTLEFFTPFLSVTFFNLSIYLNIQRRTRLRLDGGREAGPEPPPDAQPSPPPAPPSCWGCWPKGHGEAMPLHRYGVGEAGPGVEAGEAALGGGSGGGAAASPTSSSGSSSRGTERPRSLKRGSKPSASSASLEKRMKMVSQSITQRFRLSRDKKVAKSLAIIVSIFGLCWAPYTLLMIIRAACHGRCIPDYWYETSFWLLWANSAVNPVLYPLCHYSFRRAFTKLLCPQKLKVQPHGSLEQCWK
Procedure, shortened: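 Scintillation proximity displacement of about 1 nM [3H]-N-alpha-methylhistamine, test compound 0.01 nM-30 μM, 4 h, room temperature, in the dark. Receptor source: rat H3 stably transfected into CHO-A3 cells, 10 μg membrane protein, Tris-HCl pH 7.4/MgCl2/BSA buffer. Nonspecific binding defined by 10 μM clobenpropit.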

| Structure (SMILES) | Ki (human H3 receptor) [nM] | Ki [1] [nM] |
| --- | --- | --- |
| O=c1ccc(-c2ccccc2)nn1-c1ccc(OC2CCN(C3CCC3)CC2)nc1 [Example 203, 2-[6-(1-Cyclobutyl-piperidin-4-yloxy)-pyridin-3-yl]-6-phenyl-2H-pyridazin-3-one] | 0.1 to 100 | 0.1 to 100 |
| Cc1onc2c(=O)[nH]nc(-c3ccc(OC4CCN(C5CCC5)CC4)cc3)c12 [Example 205, 4-[4-(1-Cyclobutyl-piperidin-4-yloxy)-phenyl]-3-methyl-6H-isoxazolo[3,4-d]pyridazin-7-one] | 101 to 500 | 101 to 500 |
| Cc1onc2c(=O)[nH]nc(-c3ccc(OC4CCNCC4)cc3)c12 [Example 206, 3-methyl-4-[4-(piperidin-4-yloxy)phenyl]-6h-isoxazolo-[3,4-d]pyridazin-7-one TFA salt] | > 1000 | > 1000 |
| C[C@@H]1CCCN1CCCOc1ccc2c(c1)CCc1cc(=O)[nH]nc1-2 [Example 209, 8-[3-((R)-2-Methyl-pyrrolidin-1-yl)-propoxy]-5,6-dihydro-2H-benzo[h]cinnolin-3-one] | 0.1 to 100 | 0.1 to 100 |
| C[C@@H]1CCCN1CCCOc1ccc2c(c1)CCC1CC(=O)NN=C21 (stereo partly drawn) [Example 212, 8-[3-(2-Methyl-pyrrolidin-1-yl)-propoxy]-4,4a,5,6-tetrahydro-2H-benzo[h]cinnolin-3-one] | 0.1 to 100 | 0.1 to 100 |
| C[C@@H]1CCCN1CCCOc1ccc2c(c1)CCc1n[nH]c(=O)cc1-2 [Example 218, 8-[3-((R)-2-Methyl-pyrrolidin-1-yl)-propoxy]-5,6-dihydro-3H-benzo[f]cinnolin-2-one] | 0.1 to 100 | 0.1 to 100 |
| O=C1CCC(c2ccc(OC3CCN(C4CCC4)CC3)cc2F)=NN1 [Example 219, 6-[4-(1-Cyclobutyl-piperidin-4-yloxy)-2-fluoro-phenyl]-4,5-dihydro-2H-pyridazin-3-one] | 0.1 to 100 | 0.1 to 100 |
| COCn1ncc(-c2ccc(OCCCN3CCC[C@H]3C)cc2C)cc1=O [Example 230, 2-Methoxymethyl-5-{2-methyl-4-[3-((R)-2-methyl-pyrrolidin-1-yl)-propoxyl]-phenyl}-2H-pyridazin-3-one] | 0.1 to 100 | 0.1 to 100 |
| COCn1ncc(-c2ccc(OCCCN3CCCCC3)cc2C)cc1=O [Example 232, 2-Methoxymethyl-5-[2-methyl-4-(3-piperidin-1-yl-propoxy)-phenyl]-2H-pyridazin-3-one] | 0.1 to 100 | 0.1 to 100 |
| COCn1ncc(-c2ccc(OC3CCN(C4CCC4)CC3)cc2C)cc1=O [Example 234, 5-[4-(1-Cyclobutyl-piperidin-4-yloxy)-2-methyl-phenyl]-2-methoxymethyl-2H-pyridazin-3-one] | 0.1 to 100 | 0.1 to 100 |
| COCn1ncc(-c2ccc(OCCCN3CCC[C@H]3C)cc2)c(OC)c1=O [Example 235, 4-Methoxy-2-methoxymethyl-5-{4-[3-((R)-2-methyl-pyrrolidin-1-yl)-propoxy]-phenyl}-2H-pyridazin-3-one] | 0.1 to 100 | 0.1 to 100 |
| COCn1ncc(OC)c(-c2ccc(OCCCN3CCC[C@H]3C)cc2)c1=O [Example 236, 5-Methoxy-2-methoxymethyl-4-{4-[3-((R)-2-methyl-pyrrolidin-1-yl)-propoxy]-phenyl}-2H-pyridazin-3-one] | 0.1 to 100 | 0.1 to 100 |
| O=c1ccc(-c2ccc(OCCCN3CCOCC3)cc2)n[nH]1 [Example 238, 6-[4-(3-Morpholin-4-yl-propoxy)-phenyl]-2H-pyridazin-3-one] | > 1000 | > 1000 |
| CCN1N=C(c2ccc(OC3CCN(C4CCC4)CC3)cc2)C2CC2C1=O (stereo not drawn) [Example 250, 5-[4-(1-Cyclobutyl-piperidin-4-yloxy)-phenyl]-3-ethyl-3,4-diaza-bicyclo[4.1.0]hept-4-en-2-one] | 0.1 to 100 | 0.1 to 100 |
| CC(C)N1N=C(c2ccc(OC3CCN(C4CCC4)CC3)cc2)C2CC2C1=O (stereo not drawn) [Example 251, 5-[4-(1-Cyclobutyl-piperidin-4-yloxy)-phenyl]-3-isopropyl-3,4-diaza-bicyclo[4.1.0]hept-4-en-2-one] | 0.1 to 100 | 0.1 to 100 |
| CN1N=C(c2ccc(OC3CCN(C4CCC4)CC3)cc2)C2CC2C1=O (stereo not drawn) [Example 252, 5-[4-(1-Cyclobutyl-piperidin-4-yloxy)-phenyl]-3-methyl-3,4-diaza-bicyclo[4.1.0]hept-4-en-2-one] | 0.1 to 100 | 0.1 to 100 |
| O=C1C2CC2C(c2ccc(OC3CCN(C4CCC4)CC3)cc2)=NN1c1ccc(F)cc1 (stereo not drawn) [Example 253, 5-[4-(1-Cyclobutyl-piperidin-4-yloxy)-phenyl]-3-(4-fluoro-phenyl)-3,4-diaza-bicyclo[4.1.0]hept-4-en-2-one] | 0.1 to 100 | 0.1 to 100 |
| O=C1C2CC2C(c2ccc(OC3CCN(C4CCC4)CC3)cc2)=NN1CC(F)(F)F (stereo not drawn) [Example 254, 5-[4-(1-Cyclobutyl-piperidin-4-yloxy)-phenyl]-3-(2,2,2-trifluoro-ethyl)-3,4-diaza-bicyclo[4.1.0]hept-4-en-2-one] | 0.1 to 100 | 0.1 to 100 |
| CN1N=C(c2ccc(OC3CCN(C4CCCC4)CC3)cc2)C2CC2C1=O (stereo not drawn) [Example 260, 5-[4-(1-Cyclopentyl-piperidin-4-yloxy)-phenyl]-3-methyl-3,4-diaza-bicyclo[4.1.0]hept-4-en-2-one] | 0.1 to 100 | 0.1 to 100 |

Second part, the compound after the results:

| Ki (human H3 receptor) [nM] | Ki [1] [nM] | Structure (SMILES) |
| --- | --- | --- |
| 101 to 500 | 101 to 500 | COc1cc(OCCCN2CCC[C@H]2C)ccc1-c1ccc(=O)[nH]n1 [Example 213, 6-{2-Methoxy-4-[3-((R)-2-methyl-pyrrolidin-1-yl)-propoxy]-phenyl}-2H-pyridazin-3-one] |
| 0.1 to 100 | 0.1 to 100 | C[C@@H]1CCCN1CCCOc1ccc(-c2ccc(=O)n(-c3ccccn3)n2)cc1 [Example 215, 6-{4-[3-((R)-2-Methyl-pyrrolidin-1-yl)-propoxy]-phenyl}-2-pyridin-2-yl-2H-pyridazin-3-one] |
| 0.1 to 100 | 0.1 to 100 | C[C@@H]1CCCN1CCCOc1ccc(C2=NNC(=O)C(c3ccccn3)C2)cc1 (stereo partly drawn) [Example 216, 6-{4-[3-((R)-2-Methyl-pyrrolidin-1-yl)-propoxy]-phenyl}-4-pyridin-2-yl-4,5-dihydro-2H-pyridazin-3-one] |
| 0.1 to 100 | 0.1 to 100 | C[C@@H]1CCCN1CCCOc1ccc(-c2cc(-c3ccccn3)c(=O)[nH]n2)cc1 [Example 217, 6-{4-[3-((R)-2-Methyl-pyrrolidin-1-yl)-propoxy]-phenyl}-4-pyridin-2-yl-2H-pyridazin-3-one] |
| 0.1 to 100 | 0.1 to 100 | C[C@@H]1CCCN1CCCOc1ccc(-c2cn[nH]c(=O)c2)cc1 [Example 223, 5-{4-[3-((R)-2-Methyl-pyrrolidin-1-yl)-propoxy]-phenyl}-2H-pyridazin-3-one] |
| 0.1 to 100 | 0.1 to 100 | Cc1cc(OCCCN2CCC[C@H]2C)ccc1-c1cn[nH]c(=O)c1 [Example 231, 5-{2-methyl-4-[3-((R)-2-methyl-pyrrolidin-1-yl)-propoxyl]-phenyl}-2H-pyridazin-3-one] |
| 0.1 to 100 | 0.1 to 100 | COc1cn[nH]c(=O)c1-c1ccc(OCCCN2CCC[C@H]2C)cc1 [Example 237, 5-Methoxy-4-{4-[3-((R)-2-methyl-pyrrolidin-1-yl)-propoxy]-phenyl}-2H-pyridazin-3-one] |
| 0.1 to 100 | 0.1 to 100 | C[C@H]1CCCN1CCCOc1ccc(-c2ccc(=O)[nH]n2)cc1 [Example 239, 6-{4-[3-((S)-2-Methyl-pyrrolidin-1-yl)-propoxy]-phenyl}-2H-pyridazin-3-one] |
